# Source: patent US20090239898A1 (SCIENCOM LTD., priority 2003, published 2009)
# What was measured:
# abnormal baboon = settings: cited from earlier work
# semi-comatose patient = settings: reverts when drug action subsides; cited from earlier work
# [1] = system: patient with Ramsay-Hunt syndrome; assay: Zolpidem therapy of Ramsay-Hunt syndrome (Example 3); format: in vivo, human
# From the text: On treatment, the following features improved. […] Also, as part of the syndrome they could not close their left eye. After zolpidem they could.
# [2] = system: patient who had suffered a stroke; assay: Clinical observation after zolpidem in a stroke patient (Example 1); format: in vivo, human; settings: 10 mg zolpidem
# From the text: They had suffered a stroke several years before and presented with left-sided paraplegia since the onset of their stroke. Their cognition was still normal but they had some aphasia and decreased proprioseption that was evident from their inability to use scissors with their right hand. The clinical and neurological features of the patient were unremarkable apart from the above.
# [3] = system: patient after subarachnoid haemorrhage; assay: Brain SPECT before and after zolpidem after subarachnoid haemorrhage (Example 4); format: in vivo, human; settings: 1 hour after 10 mg zolpidem
# [4] = system: patients with Spinocerebellar Ataxia Type 2; assay: Clinical response to zolpidem in a family with Spinocerebellar Ataxia Type 2 (Example 2); format: in vivo, human
# From the text: There is currently no effective pharmacologic treatment for spinocerebellar ataxia. […] Spinocerebellar Ataxia Type 2 was confirmed by molecular analysis.
# [5] = system: patient after subarachnoid haemorrhage; assay: Hearing and speech evaluation before and after zolpidem after subarachnoid haemorrhage (Example 4); format: in vivo, human
# Description: The patient was then examined for any changes in hearing. […] The patient was also evaluated by the speech therapist before and after zolpidem.
# Parkinson's disease = settings: in vivo; cited from earlier work
smiles,measurement,setting,value
CCOC(=O)c1ncn2c1CN(C)C(=O)c1cc(F)ccc1-2 [flumazenil],effect on zolpidem-induced asymmetric perfusion pattern,abnormal baboon; abnormal baboon,attenuates the influence of zolpidem
CN1C(=O)CN=C(c2ccccc2)c2cc(Cl)ccc21 [diazepam],state of consciousness after drug application,semi-comatose patient,not awakened
Cc1ccc(-c2nc3ccc(C)cn3c2CC(=O)N(C)C)cc1 [zolpidem],closing of left eye,[1]; after zolpidem,they could
same,drinking fluids,[1]; on zolpidem treatment,able to drink fluids directly from a cup
same,tonus of facial nerves,[1]; on zolpidem treatment,improved
same,clinical changes after zolpidem,[2],no marked clinical changes
same,ability to use scissors,[2]; for the next few hours until drug action subsided,able to use scissors
same,brain perfusion,abnormal baboon; brain-abnormal baboon,asymmetric increased perfusion
same,defect in the right parietal aspect of the brain,[3],remained unchanged
same,time to clinical improvement,[4]; 10 mg zolpidem,≤ 1 h
same,patients improved clinically,"[4]; family of five patients, 10 mg zolpidem",four
same,"ataxia, intention tremor and titubation",[4]; patient P1,improved moderately
same,"ataxia, intention tremor and titubation",[4]; patient P2,improved
same,"ataxia, intention tremor and titubation",[4]; patient P3,improved moderately
same,clinical improvement,[4]; patient P4,no improvement
same,"ataxia, intention tremor and titubation",[4]; patient P5,slightly improved
same,hearing (pre and post-zolpidem audiograms),[5]; after 10 mg zolpidem,improved
same,sleepiness,[5]; after 10 mg zolpidem,slightly sleepy
same,speech ability,[5]; after 10 mg zolpidem,improved markedly
same,persistence of hearing and speech improvements,[5]; even after halving the zolpidem dose,remained for the duration of drug action
same,state of consciousness after drug application,semi-comatose patient,exits their permanent vegetative state
same,obsessive-compulsive symptoms (cessation of verbal iterations),Parkinson's disease,improved
same,symptoms of PD (akinesia and rigidity),Parkinson's disease,improved
